Measured values reported in US20210032257A1, “(E)-1-(4-(DIMETHYLAMINO)BUT-2-ENOYL)PYRROLIDIN-3-YL 4-((3-ISOPROPYL-5-METHYLPYRAZOLO[1,5-A]PYRIMIDIN-7-YL)AMINO)PIPERIDINE-1-CARBOXYLATE FOR INHIBITING CDK7” (Eli Lilly and Company, priority 2017, published 2021).
pIC50: −log10 of the molar value.

Key:
Assay in all cases: Biomarker study proliferation (CellTiter-Glo)
Format in all cases: cell-based
CAOV3 = tested on: CAOV3
Outline: (§1)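 Ten concentrations, threefold apart, starting from a 10 mM DMSO working stock, are applied to cells seeded at 5000/well. Exposure lasts 7 days at 37 °C, 5% CO2, and viability is read by luminescence.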

HOS = tested on: HOS
Outline: as §1

KYSE520 = tested on: KYSE520
Outline: as §1

LN18 = tested on: LN18
Outline: as §1

LS411N = tested on: LS411N
Outline: as §1

NCIH1436 = tested on: NCIH1436
Outline: as §1

NCIH146 = tested on: NCIH146
Outline: as §1

NCIH2030 = tested on: NCIH2030
Outline: as §1

NCIH2081 = tested on: NCIH2081
Outline: as §1

OV90 = tested on: OV90
Outline: as §1

RKO = tested on: RKO
Outline: as §1

RT112 = tested on: RT112
Outline: as §1

SKUT1 = tested on: SKUT1
Outline: as §1

SNU478 = tested on: SNU478
Outline: as §1

SNU739 = tested on: SNU739
Outline: as §1

TGW = tested on: TGW
Outline: as §1

TOV112D = tested on: TOV112D
Outline: as §1

UACC893 = tested on: UACC893
Outline: as §1

[1] = Homo sapiens, 168 h, read-out: Anti-proliferation effect IC50
[2] = 168 h, read-out: Anti-proliferation effect IC50

Cc1cc(NC2CCN(C(=O)O[C@H]3CCN(C(=O)/C=C/CN(C)C)C3)CC2)n2ncc(C(C)C)c2n1 [Example 1, [(3S)-1-[(E)-4-(dimethylamino)but-2-enoyl]pyrrolidin-3-yl] 4-[(3-isopropyl-5-methyl-pyrazolo[1,5-a]pyrimidin-7-yl)amino]piperidine-1-carboxylate]
Anti-proliferation effect % Inh. (CAOV3; CAOV3, OVARY, 7 days): 96%
Anti-proliferation effect Outcome (CAOV3; CAOV3, OVARY, 7 days): Cytotoxic (cytotoxic (IC50<1 μM and % inhibition ≥70%))
pIC50 (CAOV3; Homo sapiens, Caov-3, 168 h, read-out: Anti-proliferation effect IC50): 7.72
Anti-proliferation effect % Inh. (HOS; BONE, 7 days): 72%
Anti-proliferation effect Outcome (HOS; BONE, 7 days): Cytotoxic (cytotoxic (IC50<1 μM and % inhibition ≥70%))
pIC50 (HOS; [1]): 7.05
pIC50 (KYSE520; Homo sapiens, KYSE-520, 168 h, read-out: Anti-proliferation effect IC50): < 5.00
Anti-proliferation effect % Inh. (KYSE520; KYSE520, OESOPHAGUS, 7 days): 50%
Anti-proliferation effect Outcome (KYSE520; KYSE520, OESOPHAGUS, 7 days): Insensitive (insensitive (IC50≥1 μM))
pIC50 (LN18; Homo sapiens, LN-18, 168 h, read-out: Anti-proliferation effect IC50): 7.82
Anti-proliferation effect % Inh. (LN18; LN18, CNS, 7 days): 91%
Anti-proliferation effect Outcome (LN18; LN18, CNS, 7 days): Cytotoxic (cytotoxic (IC50<1 μM and % inhibition ≥70%))
pIC50 (LS411N; Homo sapiens, LS-411N, 168 h, read-out: Anti-proliferation effect IC50): 6.00
Anti-proliferation effect % Inh. (LS411N; LS411N, INTESTINE, 7 days): 45%
Anti-proliferation effect Outcome (LS411N; LS411N, INTESTINE, 7 days): Insensitive (insensitive (IC50≥1 μM))
pIC50 (NCIH1436; Homo sapiens, NCI-H1436, 168 h, read-out: Anti-proliferation effect IC50): 6.71
Anti-proliferation effect % Inh. (NCIH1436; NCIH1436, LUNG, 7 days): 56%
Anti-proliferation effect Outcome (NCIH1436; NCIH1436, LUNG, 7 days): Cytostatic (cytostatic (IC50<1 μM and % inhibition <70%))
pIC50 (NCIH146; Homo sapiens, NCI-H146, 168 h, read-out: Anti-proliferation effect IC50): 7.52
Anti-proliferation effect % Inh. (NCIH146; NCIH146, LUNG, 7 days): 77%
Anti-proliferation effect Outcome (NCIH146; NCIH146, LUNG, 7 days): Cytotoxic (cytotoxic (IC50<1 μM and % inhibition ≥70%))
pIC50 (NCIH2030; Homo sapiens, NCI-H2030, 168 h, read-out: Anti-proliferation effect IC50): 5.27
Anti-proliferation effect % Inh. (NCIH2030; NCIH2030, LUNG, 7 days): 9%
Anti-proliferation effect Outcome (NCIH2030; NCIH2030, LUNG, 7 days): Insensitive (insensitive (IC50≥1 μM))
pIC50 (NCIH2081; Homo sapiens, NCI-H2081, 168 h, read-out: Anti-proliferation effect IC50): 6.35
Anti-proliferation effect % Inh. (NCIH2081; NCIH2081, LUNG, 7 days): 44%
Anti-proliferation effect Outcome (NCIH2081; NCIH2081, LUNG, 7 days): Cytostatic (cytostatic (IC50<1 μM and % inhibition <70%))
pIC50 (OV90; Homo sapiens, OV-90, 168 h, read-out: Anti-proliferation effect IC50): 7.47
Anti-proliferation effect % Inh. (OV90; OV90, OVARY, 7 days): 61%
Anti-proliferation effect Outcome (OV90; OV90, OVARY, 7 days): Cytostatic (cytostatic (IC50<1 μM and % inhibition <70%))
pIC50 (RKO; [1]): 6.93
Anti-proliferation effect % Inh. (RKO; INTESTINE, 7 days): 61%
Anti-proliferation effect Outcome (RKO; INTESTINE, 7 days): Cytostatic (cytostatic (IC50<1 μM and % inhibition <70%))
pIC50 (RT112; Homo sapiens, RT-112, 168 h, read-out: Anti-proliferation effect IC50): 7.49
Anti-proliferation effect % Inh. (RT112; RT112, URINARY, 7 days): 87%
Anti-proliferation effect Outcome (RT112; RT112, URINARY, 7 days): Cytotoxic (cytotoxic (IC50<1 μM and % inhibition ≥70%))
pIC50 (SKUT1; Homo sapiens, SK-UT-1, 168 h, read-out: Anti-proliferation effect IC50): 7.39
Anti-proliferation effect % Inh. (SKUT1; SKUT1, SOFT TISSUE, 7 days): 89%
Anti-proliferation effect Outcome (SKUT1; SKUT1, SOFT TISSUE, 7 days): Cytotoxic (cytotoxic (IC50<1 μM and % inhibition ≥70%))
pIC50 (SNU478; [2]): 7.49
Anti-proliferation effect % Inh. (SNU478; SNU478, BILIARY, 7 days): 92%
Anti-proliferation effect Outcome (SNU478; SNU478, BILIARY, 7 days): Cytotoxic (cytotoxic (IC50<1 μM and % inhibition ≥70%))
Anti-proliferation effect % Inh. (SNU739; SNU739, LIVER, 7 days): 47%
Anti-proliferation effect Outcome (SNU739; SNU739, LIVER, 7 days): Insensitive (insensitive (IC50≥1 μM))
pIC50 (SNU739; SNU-739, 168 h, read-out: Anti-proliferation effect IC50): < 5.00
pIC50 (TGW; [2]): 7.15
Anti-proliferation effect % Inh. (TGW; TGW, BRAIN, 7 days): 63%
Anti-proliferation effect Outcome (TGW; TGW, BRAIN, 7 days): Cytostatic (cytostatic (IC50<1 μM and % inhibition <70%))
pIC50 (TOV112D; [1]): 7.60
Anti-proliferation effect % Inh. (TOV112D; OVARY, 7 days): 81%
Anti-proliferation effect Outcome (TOV112D; OVARY, 7 days): Cytotoxic (cytotoxic (IC50<1 μM and % inhibition ≥70%))
pIC50 (UACC893; Homo sapiens, UACC-893, 168 h, read-out: Anti-proliferation effect IC50): 5.38
Anti-proliferation effect % Inh. (UACC893; UACC893, BREAST, 7 days): −51%
Anti-proliferation effect Outcome (UACC893; UACC893, BREAST, 7 days): Insensitive (insensitive (IC50≥1 μM))
